Data taken from patent publication US8513417B2, “Method for synthesis of nitroxyl radical” (Kyushu University, National University Corporation, priority 2008, dated 2013).

Columns and labels:
[1] = Reactivity of nitroxyl radical to ascorbic acid (decrease in ESR signal intensity over time); format: physicochemical; details: nitroxyl radical 10 to 50 μM, ascorbic acid 100 μM to 2 mM, X-band ESR
Description: It has been reported that nitroxyl radical also reacts with a reduction substance (Couet, W. R., Tetrahedron, 41(7), 1165-1172 (1985); Finkelstein, E., Biochimica et Biophysica Acta, 802, 90-98 (1984)). Therefore, the following procedure was carried out. After nitroxyl radical (10 to 50 μM) was mixed with ascorbic acid (100 μM to 2 mM), a specific amount of the mixture was collected in a capillary, and thereafter the measurement was started. Using X-band ESR, decrease in ESR signal intensity was observed over time, thereby examining the reactivity to ascorbic acid, which is a typical reduction substance in the living body.

[2] = Reactivity of nitroxyl radical to hydroxyl radical (UV/H2O2, X-band ESR); format: physicochemical; details: nitroxyl radical 25 μM, H2O2 10 mM, UV 100 to 120 mW/cm^2, X-band ESR
Description: In order to examine reactivities of the following 3 types of TEMPO-based nitroxyl radical derivatives, in which substituents at position-2 and position-6 in one derivative are different from those in another derivative, to free radical:
[drawing 49] according to the method of Takeshita et al. (Biochimica et Biophysica Acta, 1573, 156-164 (2002)), the following procedure was carried out. Nitroxyl radical (25 μM) was mixed with H2O2 (10 mM), and thereafter a specific amount of the mixture was collected in a capillary and irradiated with UV (100 to 120 mW/cm^2) to generate OH radical. The reactivities thereof to the nitroxyl radical were examined using X-band ESR.

Compound | melting point | reactivities to ascorbic acid, rank order [1] | reactivity to ascorbic acid ([1]; FIG. 2) | reactivities to hydroxyl radical, rank order [2]
CC(C)(C)C1CC(=O)CC(C(C)(C)C)N1 (stereo not shown) | 55.4 °C |  |  | 
[O]N1C2(CCOCC2)CC(=O)CC12CCOCC2 [Compound 3, 2,6-dispiro-1′,1″-dipyran-piperidone-1-oxyl] |  | Compound 3>Compound 2>Compound 1 | very rapidly reacts with ascorbic acid | Compound 1>Compound 3>Compound 2
